Where two headings read alike, the source gives them in different places.
Experiments:
[1] = system: bile acid sulfate sulfatase; assay: Inhibition and activation of the present Enzyme by additives; format: biochemical, Pseudomonas testosteroni
Experimental: (§1) The physicochemical properties of the present Enzyme are further described below. The activity of the present Enzyme is measured as follows. That is, into a quartz cell are placed 0.1 ml of 2.5 mM aqueous solution of lithocholic acid 3α-sulfate (Sigma), 0.2 ml of 15 mM aqueous solution of β-NAD (Oriental Yeast), 1.0 ml of 0.1M tris-hydrochloric acid buffer solution (pH 8.0) and 1.55 ml of distilled water, and after equilibrating at 30° C., 0.05 ml of β-hydroxysteroid dehydrogenase (Sigma) solution (10 U/ml) and 0.1 ml of a solution of the present Enzyme are sequentially added thereto and the reaction is effected at 30° C., and the increase of the absorbance at 340 nm in the initial stage of the reaction is determined. Under these conditions, the enzyme activity producing 1 μmol of NADH per minute is defined as 1 unit.

[2] = system: bile acid sulfate sulfatase; assay: Activity of the present Enzyme on substrates (coupled β-hydroxysteroid dehydrogenase/NADH assay, absorbance at 340 nm); format: biochemical, Pseudomonas testosteroni; conditions: for Relative activity (substrate specificity): lithocholic acid 3α-sulfate = 100
Experimental: as §1
(b) Substrate specificity: Acting on 3α-sulfates of nonconjugated bile acids, and 3α-sulfates each of glycine-conjugated and taurine-conjugated bile acids.

[3] = additive 2 mM, no additive = 100
[4] = additive 1 mM, no additive = 100
[5] = effect of the substance on the present Enzyme

Row | Compound | Relative Activity [1, 3] [%] | Relative activity (substrate specificity) [2] [%] | further results
1 | [Cl][Co][Cl] [Cobalt chloride] | 92 | – | –
2 | C[C@H](CCC(=O)O)[C@H]1CC[C@H]2[C@@H]3CC=C4C[C@@H](OS(=O)(=O)O)CC[C@]4(C)[C@H]3CC[C@]12C [3β-Hydroxy-5-cholenic acid 3-sulfate] | – | 0 | –
3 | [Cl][Cd][Cl] [Cadmium chloride] | 98 | – | –
4 | [Cl][Hg][Cl] [Mercuric chloride] | 71 | – | Relative Activity [1, 4]: 90%
5 | c1ccc(-c2ccccn2)nc1 [α,α'-Dipyridyl] | – | – | Relative Activity [1, 4]: 97%
6 | [Cl][Mn][Cl] [Manganese chloride] | 111 | – | Inhibition and activation (in words) [1, 5]: Activated
7 | [F-].[Na+] [Sodium fluoride] | 98 | – | –
8 | O=S(=O)([O-])[O-].[Cu+2] [Copper sulfate] | 94 | – | –
9 | [N-]=[N+]=[N-] [Sodium azide] | – | – | Relative Activity ([1]; additive 10 mM, no additive = 100): 100%
10 | C[C@H](CCC(=O)O)[C@H]1CC[C@H]2[C@@H]3CC[C@@H]4C[C@H](OS(=O)(=O)O)CC[C@]4(C)[C@H]3CC[C@]12C [Lithocholic acid 3α-sulfate] | – | 100 | Km ([2]; Km of the present Enzyme to the substrate): 6 µM
11 | O=C(O)c1cc[c]([Hg][Cl])cc1 [p-Chloromercuribenzoate] | – | – | Relative Activity ([1]; additive 0.2 mM, no additive = 100): 98%; Inhibition and activation (in words) [1, 5]: Hardly inhibited
12 | O=C(O)CN(CCN(CC(=O)O)CC(=O)O)CC(=O)O [EDTA] | – | – | Relative Activity [1, 4]: 38%; Relative Activity ([1]; additive 5 mM, no additive = 100): 25%; Inhibition and activation (in words) [1, 5]: inhibited
13 | O=S(=O)([O-])[O-].[Zn+2] [Zinc sulfate] | 95 | – | –
14 | O=S(=O)([O-])[O-].[Mg+2] [Magnesium sulfate] | 101 | – | –
15 | 4-Nitrocatechol sulfate | – | 0 | –
16 | C[C@H](CCC(=O)O)[C@H]1CC[C@H]2[C@@H]3[C@H](O)C[C@@H]4C[C@H](OS(=O)(=O)O)CC[C@]4(C)[C@H]3C[C@H](O)[C@]12C [Cholic acid 3α-sulfate] | – | 238 | –
17 | O=C(O)CI [Monoiodoacetic acid] | – | – | Inhibition and activation (in words) [1]: Hardly inhibited; Relative Activity ([1]; 2000 µM): 98%
18 | C[C@H](CCC(=O)NCCS(=O)(=O)O)[C@H]1CC[C@H]2[C@@H]3CC[C@@H]4C[C@H](OS(=O)(=O)O)CC[C@]4(C)[C@H]3CC[C@]12C [Taurolithocholic acid 3α-sulfate] | – | 2 | –
19 | c1cnc2c(c1)ccc1cccnc12 [o-Phenanthroline] | – | – | Relative Activity [1, 4]: 37%; Inhibition and activation (in words) [1, 5]: inhibited
20 | C[C@H](CCC(=O)NCC(=O)O)[C@H]1CC[C@H]2[C@@H]3CC[C@@H]4C[C@H](OS(=O)(=O)O)CC[C@]4(C)[C@H]3CC[C@]12C [Glycolithocholic acid 3α-sulfate] | – | 11 | –

— patent US5091305A, “Bile acid sulfate sulfatase, process for its preparation and method for assaying bile acid” (Marukin Shoyu Co., Ltd., priority 1988, dated 1992)
